Data: patent US9895344B2, “Treating various disorders with 7,8-dihydroxyflavone and derivatives thereof” (EMORY UNIVERSITY, priority 2008, dated 2018)

How the values were obtained:
Akt = test: Western analysis of Akt phosphorylation in hippocampal neurons; assay type: cell-based
Procedure: To further examine whether 7,8-dihydroxyflavone can stimulate TrkB-mediated downstream signaling cascades, Western analysis was performed.
To probe the time course of 7,8-dihydroxyflavone triggered TrkB activation, hippocampal neurons were treated with 7,8-dihydroxyflavone at 500 nM and phosphorylation of Erk and Akt was determined over time by Western analysis. […] Stimulation of Erk and Akt by 7,8-dihydroxyflavone also occurred in a dose dependent manner.

TrkB ECD truncates [1] = test: Mapping assay with TrkB ECD truncation mutants; assay type: binding; conditions: FIG. 18
Procedure: (§1) BDNF is known to bind to the region of the TrkB ECD that contains the third leucine-rich motif (LRM), the second cysteine cluster (CC) domain, and the Immunoglobulin 2 (Ig2) domain (Haniu et al., J. Biol. Chem., 272:25296-303, 1997). To map where 7,8-dihydroxyflavone binds on the TrkB ECD, truncation mutants of the ECD were made and in vitro binding assays were conducted.

TrkB ECD truncates [2] = target: T1, TrkB ECD truncates (Rattus norvegicus, UniProt Q63604); test: Mapping assay with TrkB ECD truncation mutants; assay type: binding; conditions: FIG. 18
T1 construct: made in house
Procedure: as §1

## O=c1cc(-c2ccccc2)oc2c(O)c(O)ccc12 [7,8-dihydroxyflavone]
Akt; 500 nM
  time at which Akt phosphorylation peaked: 30 min
  time at which Akt phosphorylation was seen: 10 min
  time by which Akt phosphorylation faded: 180 min
Akt; FIG. 9
  Akt activation (Western): activated
Akt; treatment for 30 minutes
  concentration at which Akt activation was observed: 100 nm
TrkB ECD truncates [1]
  association with the CC-2 domain: strongly associated
  association with the LRM-domain: associated less strongly
  binding to the CC-1 domain: did not bind
TrkB ECD truncates [2]
  association with the ECD: strongly associated
  binding to the ICD: did not bind
